For one compound, IC50 results are on record in paper PMC6429712, “Discovery of a natural small-molecule compound that suppresses tumor EMT, stemness and metastasis by inhibiting TGFβ/BMP signaling in triple-negative breast cancer” (Journal of Experimental & Clinical Cancer Research : CR, 2019).

Experiment in all cases: in vitro kinase activity assay
Format in all cases: biochemical

Assay [1] concerns the target BMPR1B (Homo sapiens, UniProt O00238).
In assay [2] the target is T1, TGFBR1 (Homo sapiens, UniProt P36897).
T1 sequence (P36897 34-503): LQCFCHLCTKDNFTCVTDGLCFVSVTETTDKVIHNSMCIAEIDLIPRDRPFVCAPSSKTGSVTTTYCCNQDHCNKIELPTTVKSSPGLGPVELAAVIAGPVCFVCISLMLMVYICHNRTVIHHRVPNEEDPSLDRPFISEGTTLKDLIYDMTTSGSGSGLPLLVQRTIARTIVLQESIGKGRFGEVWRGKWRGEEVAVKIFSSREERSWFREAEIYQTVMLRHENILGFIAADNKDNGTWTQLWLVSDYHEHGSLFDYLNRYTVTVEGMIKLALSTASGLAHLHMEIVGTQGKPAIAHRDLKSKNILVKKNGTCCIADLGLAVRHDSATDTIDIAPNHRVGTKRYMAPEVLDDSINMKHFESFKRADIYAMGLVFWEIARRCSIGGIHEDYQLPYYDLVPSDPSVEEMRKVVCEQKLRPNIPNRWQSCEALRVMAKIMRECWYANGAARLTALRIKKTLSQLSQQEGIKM

For assay [3], the target named is T2, BMPR2 (Homo sapiens, UniProt Q13873).
T2 sequence (Q13873 27-1038): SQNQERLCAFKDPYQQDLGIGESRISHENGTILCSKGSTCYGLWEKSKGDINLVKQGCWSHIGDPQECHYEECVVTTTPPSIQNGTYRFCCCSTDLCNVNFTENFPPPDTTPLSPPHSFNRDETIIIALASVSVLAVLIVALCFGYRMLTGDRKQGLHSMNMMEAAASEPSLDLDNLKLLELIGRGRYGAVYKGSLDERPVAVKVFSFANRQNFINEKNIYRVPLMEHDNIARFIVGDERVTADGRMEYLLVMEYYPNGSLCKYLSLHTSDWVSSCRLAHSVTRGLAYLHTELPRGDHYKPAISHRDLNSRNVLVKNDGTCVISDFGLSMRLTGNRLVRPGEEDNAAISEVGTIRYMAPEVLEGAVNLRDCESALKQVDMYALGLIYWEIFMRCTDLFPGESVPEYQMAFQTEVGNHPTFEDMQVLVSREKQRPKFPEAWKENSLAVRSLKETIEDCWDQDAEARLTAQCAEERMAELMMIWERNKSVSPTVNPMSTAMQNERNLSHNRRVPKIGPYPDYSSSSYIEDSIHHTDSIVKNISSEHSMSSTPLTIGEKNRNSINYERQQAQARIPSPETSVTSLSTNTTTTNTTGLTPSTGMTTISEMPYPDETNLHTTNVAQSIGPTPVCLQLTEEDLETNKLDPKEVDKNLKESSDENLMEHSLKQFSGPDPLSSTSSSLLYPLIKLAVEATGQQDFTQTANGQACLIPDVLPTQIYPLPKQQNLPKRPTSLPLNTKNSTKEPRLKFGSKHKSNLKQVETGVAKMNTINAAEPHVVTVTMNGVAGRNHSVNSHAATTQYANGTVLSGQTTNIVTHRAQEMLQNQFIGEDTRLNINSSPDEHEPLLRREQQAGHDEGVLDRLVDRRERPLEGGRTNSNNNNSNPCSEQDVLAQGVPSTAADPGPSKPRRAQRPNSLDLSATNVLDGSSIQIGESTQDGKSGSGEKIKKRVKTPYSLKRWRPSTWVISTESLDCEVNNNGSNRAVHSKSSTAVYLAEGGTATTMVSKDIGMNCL

In assay [4] the target is BMPR1A (Homo sapiens, UniProt P36894).
Sequence of BMPR1A (P36894 24-532): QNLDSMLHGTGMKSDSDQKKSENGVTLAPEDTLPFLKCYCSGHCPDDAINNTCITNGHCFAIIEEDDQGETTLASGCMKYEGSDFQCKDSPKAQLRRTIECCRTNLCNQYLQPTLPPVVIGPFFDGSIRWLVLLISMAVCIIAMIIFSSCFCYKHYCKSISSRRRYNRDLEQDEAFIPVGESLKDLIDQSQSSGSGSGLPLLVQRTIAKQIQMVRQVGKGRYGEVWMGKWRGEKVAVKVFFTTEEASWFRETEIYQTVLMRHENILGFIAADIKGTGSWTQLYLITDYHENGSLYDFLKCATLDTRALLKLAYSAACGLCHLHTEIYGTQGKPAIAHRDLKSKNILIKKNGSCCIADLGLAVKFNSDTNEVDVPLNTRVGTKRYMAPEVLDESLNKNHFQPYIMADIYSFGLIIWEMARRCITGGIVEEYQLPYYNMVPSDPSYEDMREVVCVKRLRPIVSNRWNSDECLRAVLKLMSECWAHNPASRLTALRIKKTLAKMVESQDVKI

Sequence of BMPR1B (O00238 14-502): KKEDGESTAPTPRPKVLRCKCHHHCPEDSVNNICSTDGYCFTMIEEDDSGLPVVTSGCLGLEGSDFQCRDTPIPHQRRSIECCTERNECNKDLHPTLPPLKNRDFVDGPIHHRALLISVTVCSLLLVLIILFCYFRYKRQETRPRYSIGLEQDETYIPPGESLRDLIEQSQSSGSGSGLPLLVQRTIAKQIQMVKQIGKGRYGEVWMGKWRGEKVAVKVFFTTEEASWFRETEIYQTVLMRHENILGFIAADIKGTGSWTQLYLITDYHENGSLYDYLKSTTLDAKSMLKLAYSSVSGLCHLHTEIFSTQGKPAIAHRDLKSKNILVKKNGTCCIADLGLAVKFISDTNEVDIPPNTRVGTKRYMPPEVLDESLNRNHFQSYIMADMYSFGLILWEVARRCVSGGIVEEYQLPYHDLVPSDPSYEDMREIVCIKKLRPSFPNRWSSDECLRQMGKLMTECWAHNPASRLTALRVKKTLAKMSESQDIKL

For `O=C1Nc2ccc(O)cc2/C1=C\c1ccc(O)c(O)c1` [ZL170, (E)-3-(3,4-dihydroxybenzylidene)-5-hydroxyindolin-2-one], the IC50 in assay [1] was determined as 1100 nM; in assay [2], 1040 nM; in assay [3] it was 201 nM; in assay [4], 806 nM.
